Values of other authors, collected in patent US8058278B2, “Methods of enhancing mucosal hydration and mucosal clearance by treatment with sodium channel blockers and osmolytes” (Parion Sciences, Inc., priority 2006, dated 2011).

System: water permeability of airways
Conditions: amiloride used concurrently with hypertonic saline

Structure (SMILES): N=C(N)NC(=O)c1nc(Cl)c(N)nc1N [Amiloride, amiloride]
- effect on water permeability of airways: block the water permeability of airways
